# Reference: US20230080054A1 (ILDONG PHARMACEUTICAL CO., LTD., priority 2021, published 2023)
# How the values were obtained:
# human ANO6 [1] = molecular target: T1, human ANO6 (Homo sapiens, UniProt Q4KMQ2); experiment: YFP quenching assay (ANO6 ion channel activity); assay type: cell-based; settings: 10 μM ionomycin; for inhibition at 1 µM: test compound 1 μM, read-out: Inhibition Level 1 μM; for inhibition at 30 µM: test compound 30 μM, read-out: Inhibition Level 30 μM
# T1 construct: expressed in transfected cells
# T1 sequence (Q4KMQ2 1-931 isoform Q4KMQ2-2): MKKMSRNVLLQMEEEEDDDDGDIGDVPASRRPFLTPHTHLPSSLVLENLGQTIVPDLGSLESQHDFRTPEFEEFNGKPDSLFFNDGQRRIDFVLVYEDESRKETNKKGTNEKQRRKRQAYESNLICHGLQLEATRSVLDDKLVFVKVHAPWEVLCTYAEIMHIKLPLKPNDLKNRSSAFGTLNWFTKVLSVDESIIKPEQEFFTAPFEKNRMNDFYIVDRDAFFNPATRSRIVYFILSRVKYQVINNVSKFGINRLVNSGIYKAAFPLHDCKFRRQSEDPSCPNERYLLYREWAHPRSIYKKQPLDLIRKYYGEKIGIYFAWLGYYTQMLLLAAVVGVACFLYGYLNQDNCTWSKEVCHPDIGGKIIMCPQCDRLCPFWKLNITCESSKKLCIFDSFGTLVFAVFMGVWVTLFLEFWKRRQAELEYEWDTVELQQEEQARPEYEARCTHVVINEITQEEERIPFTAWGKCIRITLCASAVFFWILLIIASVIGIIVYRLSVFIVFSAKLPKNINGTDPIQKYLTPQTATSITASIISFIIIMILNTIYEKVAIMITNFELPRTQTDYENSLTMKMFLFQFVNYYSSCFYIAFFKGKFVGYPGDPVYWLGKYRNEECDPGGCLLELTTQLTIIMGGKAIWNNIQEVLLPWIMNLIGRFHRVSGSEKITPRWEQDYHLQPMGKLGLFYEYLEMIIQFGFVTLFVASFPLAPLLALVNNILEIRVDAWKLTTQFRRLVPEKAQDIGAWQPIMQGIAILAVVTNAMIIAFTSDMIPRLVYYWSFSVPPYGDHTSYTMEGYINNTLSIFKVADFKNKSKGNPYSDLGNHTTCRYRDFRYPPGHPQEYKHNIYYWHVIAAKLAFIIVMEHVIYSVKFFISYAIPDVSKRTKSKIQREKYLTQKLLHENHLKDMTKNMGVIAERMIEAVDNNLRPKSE
# Outline: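 FRT cells stably expressing human ANO6 and YFP-H148Q/I152L/F46L, preincubated 10 min at 40° C with compounds (1% DMSO) in PBS. Quench read every 0.4 s after injecting 140 mM SCN- with 10 μM ionomycin; % inhibition from the 3.6–7.6 s fluorescence difference, normalised to no-ionomycin (100%) and ionomycin-only (0%) wells, duplicate or triplicate.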
# human ANO6 [2] = molecular target: T1, human ANO6; experiment: LACT C2 assay (phosphatidylserine scramblase function assay); assay type: cell-based; settings: FRT cells expressing human ANO6, 10 μM ionomycin; for inhibition at 0.1 µM: test compound 100 nM, read-out: Inhibition Level 100 nM; for inhibition at 1 µM: test compound 1 μM, read-out: Inhibition Level 1 μM
# Outline: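 Inhibition was normalised between ionomycin-only (0%) and untreated (100%) wells, with triplicates averaged. Readout was background-corrected Lact-C2-GFP (500 nM) fluorescence from imaged cells. The cells were FRT cells stably expressing human ANO6, given compound at 1% DMSO for 10 min before a 10 min 10 μM ionomycin challenge.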
SMILES,inhibition at 1 µM (human ANO6 [1]) [%],inhibition at 0.1 µM (human ANO6 [2]) [%],inhibition at 1 µM (human ANO6 [2]) [%],inhibition at 30 µM (human ANO6 [1]) [%]
"O=C(NC1CC1c1ccccc1)c1cccc(Nc2ccc(-c3ccccc3)nn2)c1 (centres unmarked) [Compound 67, N-(2-phenylcyclopropyl)-3-[(6-phenylpyridazin-3-yl)amino]benzamide]",≥ 60,≥ 60,≥ 60,–
"Cc1ccc(CNC(=O)c2cccc(Nc3ccc(-c4ccsc4)nn3)c2)o1 [Compound 73, N-[(5-methylfuran-2-yl)methyl]-3-{[6-(thiophen-3-yl)pyridazin-3-yl]amino}benzamide]",≥ 60,< 30,≥ 60,–
"Cc1ccc(CNC(=O)c2cccc(Nc3ccc(-c4cscc4C)nn3)c2)o1 [Compound 74, N-[(5-methylfuran-2-yl)methyl]-3-{[6-(4-methylthiophen-3-yl)pyridazin-3-yl]amino}benzamide]",≥ 60,30 to 60,≥ 60,–
"Cc1ccc(CNC(=O)c2cccc(Nc3ccc(-c4ccc(Cl)cc4)nn3)c2)o1 [Compound 75, 3-{[6-(4-chlorophenyl)pyridazin-3-yl]amino}-N-[(5-methylfuran-2-yl)methyl]benzamide]",30 to 60,–,30 to 60,–
"COc1cccc(CCNC(=O)c2cccc(Nc3ncc(-c4cccc(F)c4)cn3)c2)c1 [Compound 78, 3-{[5-(3-fluorophenyl)pyrimidin-2-yl]amino}-N-[2-(3-methoxyphenyl)ethyl]benzamide]",30 to 60,30 to 60,≥ 60,–
"O=C(NCCC1CCCCC1)c1cccc(Nc2ncc(-c3ccccc3)cn2)c1 [Compound 81, N-(2-cyclohexylethyl)-3-[(5-phenylpyrimidin-2-yl)amino]benzamide]",≥ 60,30 to 60,≥ 60,–
"O=C(NCCc1cc(F)cc(F)c1)c1cccc(Nc2ncc(-c3ccccc3)cn2)c1 [Compound 82, N-[2-(3,5-difluorophenyl)ethyl]-3-[(5-phenylpyrimidin-2-yl)amino]benzamide]",30 to 60,–,< 30,–
"O=C(NCCc1cccc(F)c1)c1cccc(Nc2ncc(-c3ccccc3)cn2)c1 [Compound 90, N-[2-(3-fluorophenyl)ethyl]-3-[(5-phenylpyrimidin-2-yl)amino]benzamide]",≥ 60,–,30 to 60,–
"Cc1ccc(CNC(=O)c2cccc(Nc3ncc(-c4ccc(C)o4)cn3)c2)o1 [Compound 92, N-[(5-methylfuran-2-yl)methyl]-3-{[5-(5-methylfuran-2-yl)pyrimidin-2-yl]amino}benzamide]",< 30,–,< 30,–
"Cc1ccc(CNC(=O)c2cccc(Nc3ncc(-c4ccccc4C(F)(F)F)cn3)c2)o1 [Compound 98, N-[(5-methylfuran-2-yl)methyl]-3-({5-[2-(trifluoromethyl)phenyl]pyrimidin-2-yl}amino)benzamide]",≥ 60,–,30 to 60,–
"O=C(NCCN1CC2CCC1C2)c1cccc(Nc2ncc(-c3ccccc3)cn2)c1 (centres unmarked) [Compound 105, N-(2-{2-azabicyclo[2.2.1]heptan-2-yl}ethyl)-3-[(5-phenylpyrimidin-2-yl)amino]benzamide]",< 30,< 30,< 30,–
"Cc1ccc(CNC(=O)c2cccc(Nc3ncc(-c4cccs4)cn3)c2)o1 [Compound 110, N-[(5-methylfuran-2-yl)methyl]-3-{[5-(thiophen-2-yl)pyrimidin-2-yl]amino}benzamide]",30 to 60,–,30 to 60,–
"Cc1ccc(CNC(=O)c2cccc(Nc3ncc(-c4ccoc4C)cn3)c2)o1 [Compound 112, N-[(5-methylfuran-2-yl)methyl]-3-{[5-(2-methylfuran-3-yl)pyrimidin-2-yl]amino}benzamide]",≥ 60,–,30 to 60,–
"O=C(NCCc1ccccc1)c1cccc(Nc2ccc(-c3ccccc3)cn2)c1 [Compound 114, N-(2-phenylethyl)-3-[(5-phenylpyridin-2-yl)amino]benzamide]",≥ 60,< 30,≥ 60,–
"O=C(N[C@@H]1C[C@H]1c1ccccc1)c1cccc(Nc2ccc(-c3ccccc3)cn2)c1 [Compound 115, N-[(1R,2S)-2-phenylcyclopropyl]-3-[(5-phenylpyridin-2-yl)amino]benzamide]",≥ 60,≥ 60,≥ 60,–
"O=C(Nc1cccc(F)c1)c1cccc(Nc2ncc(-c3ccccc3)cn2)c1 [Compound 116, N-(3-fluorophenyl)-3-[(5-phenylpyrimidin-2-yl)amino]benzamide]",≥ 60,< 30,≥ 60,–
"O=C(N[C@@H]1C[C@H]1c1ccccc1)c1cccc(Nc2ncc(-c3ccccc3)cn2)c1 [Compound 117, N-[(1R,2S)-2-phenylcyclopropyl]-3-[(5-phenylpyrimidin-2-yl)amino]benzamide]",≥ 60,< 30,< 30,–
"O=C(NC1CCN(Cc2ccccc2)CC1)c1cccc(Nc2ncc(-c3ccccc3)cn2)c1 [Compound 120, N-(1-benzylpiperidin-4-yl)-3-[(5-phenylpyrimidin-2-yl)amino]benzamide]",< 30,< 30,< 30,–
"O=C(NCCc1ccccc1)c1cccc(Nc2ccc(-c3cccc(F)c3)cn2)c1 [Compound 121, 3-{[5-(3-fluorophenyl)pyridin-2-yl]amino}-N-(2-phenylethyl)benzamide]",≥ 60,–,30 to 60,–
"Cc1ccc(CNC(=O)c2cccc(Nc3ccc(-c4cccc(F)c4)cn3)c2)o1 [Compound 125, 3-{[5-(3-fluorophenyl)pyridin-2-yl]amino}-N-[(5-methylfuran-2-yl)methyl]benzamide]",≥ 60,< 30,≥ 60,–
Cc1ccc(CNC(=O)c2cccc(Nc3ccc(-c4ccc(F)cc4)nn3)c2)o1 [Compound A1],30 to 60,< 30,< 30,≥ 60
O=C(NC1CCCCC1)c1cccc(Nc2ccc(-c3ccc(F)cc3)nn2)c1 [Compound A2],≥ 60,< 30,< 30,≥ 60
O=C(NC1CCCCCC1)c1cccc(Nc2ccc(-c3ccc(F)cc3)nn2)c1 [Compound A3],≥ 60,< 30,≥ 60,≥ 60
O=C(NCCc1ccccc1)c1cccc(Nc2ccc(-c3ccc(F)cc3)nn2)c1 [Compound A4],≥ 60,< 30,< 30,≥ 60
Cc1cccc(CNC(=O)c2cccc(Nc3ccc(-c4ccc(F)cc4)nn3)c2)c1 [Compound A5],≥ 60,< 30,< 30,≥ 60
O=C(NCCCc1ccccc1)c1cccc(Nc2ccc(-c3ccc(F)cc3)nn2)c1 [Compound A6],≥ 60,< 30,< 30,≥ 60
Cc1ccc(CNC(=O)c2cccc(Nc3ccc(-c4ccccc4)nn3)c2)o1 [Compound A8],≥ 60,< 30,< 30,≥ 60
CCCCNC(=O)c1cccc(Nc2ccc(-c3ccc(F)cc3)nn2)c1 [Compound A10],≥ 60,< 30,< 30,≥ 60
CC(C)CNC(=O)c1cccc(Nc2ccc(-c3ccc(F)cc3)nn2)c1 [Compound A11],≥ 60,< 30,< 30,≥ 60
CC(C)NC(=O)c1cccc(Nc2ccc(-c3ccccc3)nn2)c1 [Compound A12],≥ 60,< 30,< 30,≥ 60
